This is an account of results in PubChem BioAssay (NCI).

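Where inhibition never reached the appropriate level, the endpoint shown equals the highest concentration tested. Otherwise, values were interpolated linearly from a five-concentration, 48-hour dose response in 96-well plates. Abbreviation: GI50, concentration required for 50% inhibition of growth. TGI: total growth inhibition.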 Where only a bound is given, the exact number is not on record here.

What all share (assay): NCI-60 cell line screen, 48 h
Assay [1] relates to HOP-92 NSCLC.
Assay [2] has as its system NCI-H23 lung.
The subject of assay [3] is UO-31 renal.
The test system of assay [4] is HCC-2998 colon.
For assay [5], the system named is T-47D breast.
Assay [6] concerns CAKI-1 renal.
The test system of assay [7] is TK-10 renal.
The subject of assay [8] is RXF 393 renal.
The subject of assay [9] is HL-60(TB) leukemia.
Assay [10] concerns 786-0 renal.

As to `NC(=O)c1ccc2nc(-c3ccc(C4(N)CCC4)cc3)c(-c3ccccc3)n2n1`, the GI50 in assay [1] was 0.815 µM; in [2], 16.4 µM; in assay [3], 0.409 µM; in assay [4] it was 13 µM; in [5] it was 0.0186 µM; in assay [6] it was 10.3 µM. The GI50 in [7] was 2.85 µM; in assay [8], 0.335 µM; in [9], 11.5 µM; in assay [10], 1.23 µM. The TGI in assay [1] was 14.1 µM; in assay [2], 51.8 µM; in assay [3], 13.5 µM; in [4], 31.7 µM; in [5], 15.8 µM; in assay [6] it was 23.9 µM. Besides, the TGI in [7] turned out to be 27.8 µM; in assay [8], 4.13 µM; in [9], 30.2 µM; in assay [10] it was 12.2 µM.

Turning to `CCc1nc(-n2c(CC)nc3ccccc3c2=O)nc(N)c1-c1ccc(Cl)cc1`, the GI50 in [1] is 18 µM; in [2], 10.9 µM; in [3], 23.7 µM; in [4] it was 2.41 µM; in assay [5] it was above 60.4 µM; in [6], 22.3 µM. Also, the GI50 in [7] was 35.6 µM; in assay [8] it was above 100 µM; in assay [9] it was above 100 µM; in assay [10] it was 8.13 µM. Further, the TGI in assay [1] is 99.9 µM; in assay [2] it was above 100 µM; in assay [3], above 100 µM; in [4], above 21 µM; in assay [5] it was above 100 µM; in [6] it was above 84.3 µM. The TGI in assay [7], in [8], in assay [9] and in assay [10] was above 100 µM each time.

`COc1ccc(S(=O)(=O)NC2=NCCN2C(=S)SN2CCn3c2nsc3=S)cc1OC`: the GI50 in assay [1] was 23.2 µM; in assay [2], 22.4 µM; in assay [3], 35.8 µM; in assay [4], 24.7 µM; in [5], 15.3 µM; in [6] it was 16.5 µM. Besides, the GI50 is 22.2 µM in assay [7], 3.1 µM in assay [8], above 100 µM in [9] and 25.5 µM in assay [10]. Besides, the TGI in assay [1] was 48.6 µM; in assay [2], 53 µM; in [3] it was above 100 µM; in assay [4], 44.1 µM; in assay [5], 35.3 µM; in assay [6] it was 61.8 µM. Also, the TGI in assay [7] is 73.8 µM; in assay [8], 13 µM; in assay [9], above 100 µM; in assay [10] it was 63.9 µM.

As to `COc1cc(/C=C/C(=O)NC[C@]2(O)CCC3C4CCc5cc(O)ccc5C4CCC32C)ccc1O` (stereo not given in full), the GI50 in assay [1] was 21.8 µM; in assay [2], 5.63 µM; in assay [3], 4.93 µM; in assay [4], 8.62 µM; in assay [5], 6.53 µM; in assay [6] it was 46.9 µM. The GI50 in assay [7] is 2.76 µM; in assay [8], 6.42 µM; in [9] it was 3.34 µM; in assay [10] it was 11.3 µM. For the same compound, the TGI in assay [1] was above 100 µM; in [2], 34 µM; in assay [3], 49.3 µM; in assay [4], 32.4 µM; in assay [5], above 100 µM; in assay [6], above 100 µM. In addition, the TGI in assay [7] turned out to be 14.4 µM; in assay [8], 85.5 µM; in assay [9], 90.7 µM; in [10], 45.7 µM.

Take `Cc1c2cnccc2c(C)c2c1c1cc(C(=O)O)ccc1n2C`: the GI50 in assay [1] is 0.913 µM; in [2], 0.774 µM; in [3], 0.49 µM; in assay [4], 1.25 µM; in [5], 1.51 µM; in assay [6] it was 0.616 µM. Besides, the GI50 in assay [7] is 1.79 µM; in [8], 0.666 µM; in [9], 2.09 µM; in [10], 1.23 µM. The TGI in [1] is 5.95 µM; in assay [2], 3.28 µM; in assay [3], 4.21 µM; in assay [4] it was 4.61 µM; in [5], above 26.5 µM; in assay [6], 8.34 µM. Moreover, the TGI was 8.96 µM in assay [7], 2.33 µM in [8], 6.64 µM in assay [9] and 11.8 µM in assay [10].

As for `C/C(=C1/N=C(c2ccccc2)OC1=O)c1ccc(C)cc1`, the TGI in [1], in assay [2], in assay [4], in assay [5], in [6] and in [7] was above 100 µM each time. The TGI in assay [8], in assay [9] and in assay [10] was above 100 µM throughout.

`COc1ccc2c(c1)CC[C@@H]1[C@@H]2CC[C@]2(C)c3[nH]ncc3C[C@@H]12`: the GI50 was 14.4 µM in assay [1]; 19.6 µM in assay [3]; 13.7 µM in assay [4]; 10.9 µM in assay [5]; 16.2 µM in assay [6]; 27 µM in assay [7]. Further, the results for the GI50 in assay [8], in [9] and in [10] were 11.3 µM, 1.64 µM and 18.2 µM, respectively. The TGI in assay [1] is above 50 µM; in assay [3], above 50 µM; in assay [4] it was 35.3 µM; in [5], 33 µM; in [6] it was 48.8 µM; in assay [7], above 50 µM. For the same compound, the results for the TGI in assay [8], in assay [9] and in [10] were 28 µM, 9.84 µM and above 50 µM, respectively.

`O=[N+]([O-])c1cccc(/C=C/c2ccccn2)c1`: the GI50 in assay [1] was 24.3 µM; in [2], 30 µM; in assay [3], 23.3 µM; in assay [4], 44.9 µM; in [5], 1.82 µM; in assay [6], 34.5 µM. The GI50 in assay [8] is 8.6 µM; in assay [9], 49.9 µM; in assay [10] it was 36.7 µM. Besides, the TGI in assay [1], in [2], in [3], in [4], in [5] and in assay [6] was above 100 µM in each case. The TGI in assay [8], in assay [9] and in assay [10] was above 100 µM in each case.
